Measured values published in ChEMBL document CHEMBL1150944, “New glycosides from ajuga decumbens” (J Nat Prod, 1998).

Tests used:
Raji [1] = experiment: Inhibition of TPA-induced EBV-early antigen activation in human Raji cells at 500 molar ratio after 48 hrs relative to TPA by indirect immunofluorescence technique; values are per cent of control; conditions: human gammaherpesvirus 4
Raji [2] = experiment: Inhibition of TPA-induced EBV-early antigen activation in human Raji cells at 1000 molar ratio after 48 hrs relative to TPA by indirect immunofluorescence technique; values are per cent of control; conditions: human gammaherpesvirus 4
Raji [3] = experiment: Inhibition of TPA-induced EBV-early antigen activation in human Raji cells at 100 molar ratio after 48 hrs relative to TPA by indirect immunofluorescence technique; values are per cent of control; conditions: human gammaherpesvirus 4
[4] = Cytotoxicity against human Raji cells assessed as cell viability at 10 molar ratio after 48 hrs; format: cell-based; conditions: read-out: Activity
[5] = Cytotoxicity against human Raji cells assessed as cell viability at 100 molar ratio after 48 hrs; format: cell-based; conditions: read-out: Activity
Raji [6] = experiment: Inhibition of TPA-induced EBV-early antigen activation in human Raji cells at 10 molar ratio after 48 hrs relative to TPA by indirect immunofluorescence technique; values are per cent of control; conditions: human gammaherpesvirus 4
[7] = Cytotoxicity against human Raji cells assessed as cell viability at 500 molar ratio after 48 hrs; format: cell-based; conditions: read-out: Activity
[8] = Cytotoxicity against human Raji cells assessed as cell viability at 1000 molar ratio after 48 hrs; format: cell-based; conditions: read-out: Activity

Compound | level, % of control (Raji [1]) [%] | level, % of control (Raji [2]) [%] | level, % of control (Raji [3]) [%] | viability at 48 h, 10 molar ratio [4] [%] | viability at 48 h, 100 molar ratio [5] [%] | level, % of control (Raji [6]) [%] | viability at 48 h, 500 molar ratio [7] [%] | viability at 48 h, 1000 molar ratio [8] [%]
CC(=O)O[C@@]1(C)C[C@@H](O)[C@]2(O)C=CO[C@@H](O[C@@H]3O[C@H](CO)[C@@H](O)[C@H](O)[C@H]3O)[C@@H]21 | 19.9 | 0 | 62.6 | > 80 | > 80 | 89.5 | > 80 | 60
C[C@]1(O)C[C@@H](O)[C@]2(O)C=CO[C@@H](O[C@H]3O[C@H](CO)[C@@H](O)[C@H](O)[C@H]3O)[C@@H]21 | 52.7 | 0 | 80.1 | – | – | 100 | – | –
CC(CO)c1cc2c(c(O)c1O[C@@H]1O[C@H](CO)[C@@H](O)[C@H](O)[C@H]1O)[C@@]1(C)CCC[C@](C)(CO[C@@H]3O[C@H](CO)[C@@H](O)[C@H](O)[C@H]3O)[C@@H]1CC2 (stereo partly specified) [AJUGASIDE A] | 24.9 | 0 | 68.3 | > 80 | > 80 | 91 | > 80 | 60
COc1ccc(CCO[C@@H]2O[C@H](CO)[C@@H](O)[C@H](O[C@@H]3O[C@@H](C)[C@H](O)[C@@H](O)[C@H]3O)[C@H]2O)cc1O [DARENDOSIDE A] | 53.8 | 22.6 | 81.6 | > 80 | > 80 | 100 | > 80 | 70
COc1ccc(CCO[C@@H]2O[C@H](CO)[C@@H](OC(=O)/C=C/c3ccc(O)c(OC)c3)[C@H](O[C@@H]3O[C@@H](C)[C@H](O)[C@@H](O)[C@H]3O[C@@H]3O[C@H](CO)[C@H](O)[C@H](O)[C@H]3O)[C@H]2O)cc1O [GALACTOSYLMARTYNOSIDE] | 31.8 | 0 | 76 | > 80 | > 80 | 98.5 | > 80 | 60
C[C@]1(O)C[C@@H](O)[C@]2(O)C=CO[C@@H](O[C@@H]3O[C@H](CO)[C@@H](O)[C@H](O)[C@H]3O)[C@@H]21 [HARPAGIDE] | – | – | – | > 80 | > 80 | – | > 80 | 60
COc1ccc(CCO[C@@H]2O[C@H](CO)[C@@H](OC(=O)/C=C/c3ccc(O)c(OC)c3)[C@H](O[C@@H]3O[C@@H](C)[C@H](O)[C@@H](O)[C@H]3O)[C@H]2O)cc1O [MARTYNOSIDE A] | 31.7 | 0 | 66.4 | > 80 | > 80 | 89.4 | > 80 | 60
CC(=O)O[C@@]1(C)CC[C@]2(O)C=CO[C@@H](O[C@@H]3O[C@H](CO)[C@@H](O)[C@H](O)[C@H]3O)[C@@H]21 [REPTOSIDE] | 22.4 | 0 | 71.3 | > 80 | > 80 | 90.3 | > 80 | 60
